Reference: US20240350494A1, “THERAPEUTIC MODULATION OF INTEGRINS” (Pliant Therapeutics, Inc., priority 2021, published 2024)
“Also recorded” adds a separate entry of the source.

Tests used:
[1] = test system: Type I Collagen gene Col1a1 expression; assay: Precision cut lung slices, acute bleomycin exposure, Col1a1 expression; assay type: cell-based, mice (C57BL/6); settings: 3 days culture; integrin inhibitors at IC50 for TGF-beta activation; pan-αV and ALK5 inhibitors at 10× reported IC50; FIG. 3A
Description: Mice (C57BL/6) were administered 3 U/kg of bleomycin (Teva Pharmaceuticals; North Wales, PA) on day 0 via oropharyngeal aspiration while under anesthesia. On day 14, precision cut lung slices were obtained. Following euthanization, 2% low gelling temp agarose was injected into the mouse lungs via the trachea. […] The lobes were then subjected to precision slicing to obtain samples for culture using a microtome (Compresstome VF-300-OZ, Precisionary; Greenville, NC). Individual slices were distributed in a multiwell culture plate and cultured for 3 days under control (DMSO) and test compound conditions.

[2] = Unbound plasma concentration in the PET study; assay type: in vivo, human; settings: IPF
Description: This Example was conducted as an open-label, single-dose (60 mg, 120 mg, 240 mg or 320 mg) clinical trial evaluating αVβ6 receptor occupancy in the lungs, safety, and pharmacokinetics of Compound 5 in subjects with IPF. Knottin tracer uptake kinetics were compared pre- and post-dose of the disclosed compound, as measured by standardized uptake values (SUVs) and parameters estimated from kinetic modeling in regions-of-interest on dynamic [^18F]FP-R01-MG-F2 PET/CT scans. […] Receptor occupancy was estimated from the output of the two-compartment model (VT, the volume of labeled tissue) using standard equations and fitting algorithms, and corrections for VND (non-displaceable tracer binding). For example, in FIG. 8, the data points, shown as circles, are modeled by the following formula: […]
Five subjects with IPF were enrolled: Subject A received a single dose of 60 mg of the disclosed compound followed by a post-dose scan. Subject B received two doses of the disclosed compound separated by two weeks, 120 mg and 240 mg, each followed by a post-dose scan. Subject C received two doses of the disclosed compound separated by two weeks, 240 mg and 320 mg, each followed by a post-dose scan. Subject D received a single dose of 320 mg of the disclosed compound followed by a post-dose scan.

[3] = test system: Quantitative Lung Fibrosis (QLF); assay: Phase 2a trial in IPF, HRCT-based Quantitative Lung Fibrosis; assay type: in vivo, human; settings: baseline to week 12, CT Protocol Population
Description: The exploratory endpoints of the trial measured changes in forced vital capacity (FVC), HRCT-based Quantitative Lung Fibrosis score (QLF), and selected biomarkers over 3 months of treatment.
FIG. 29 illustrates the Mean Percent Change in Quantitative Lung Fibrosis (the extent from baseline to week 12 in the CT Protocol Population), using High-Resolution Computed Tomography (HRCT) based Quantitative Lung Fibrosis (QLF) imaging.

COL1A1 expression = assay: Precision cut lung slices from human IPF explants, COL1A1 expression; assay type: cell-based
Description: Explanted lung tissue was obtained from human IPF subjects and inflated with agarose as described in the preceding examples. Biopsy cores were obtained from the agarose-inflated lung tissue. The biopsy cores were subjected to precision slicing to obtain several hundred μm thick. Individual slices were distributed in a multiwell culture plate and cultured for […] under control (DMSO) and test compound conditions. The viability of the slices over the course of culturing was confirmed by WST-1 assay of mitochondrial activity.
PCLS from 5-7 idopathic pulmonary fibrosis (IPF) lung tissue samples were cultured for seven days with one of: DMSO; Compound 5 at 200 nM; nintedanib at 75 nM; pirfenidone at 50 μm; a combination of Compound 5 at 200 nM and nintedanib at 75 nM; a combination of Compound 5 at 200 nM and pirfenidone at 50 μm; or an Alk5 inhibitor at 1 μm. […] FIG. 4D is a bar graph showing relative expression of COL1A1 in precision cut lung slices (PCLS) from idopathic pulmonary fibrosis (IPF) lung tissue upon exposure to Compound 5, clinical standard of care compounds nintedanib (Nin) and pirfenidone (Pirf), and an ALK5 inhibitor, all versus DMSO control.
PCLS from a single IPF lung tissue sample were cultured for seven days with Compound 5 at concentrations of 200 μM, 2 nM, 60 nM, 200 nM, and 1 μM, along with 0.1% DMSO control and an Alk5 inhibitor at 1 μM. […] COL1A1 expression is also graphed for the PCLS in the presence of 0.1% DMSO control, and an Alk5 inhibitor at 1 μM.

[4] = Phase 2a trial in IPF, pharmacokinetics; assay type: in vivo, human
Description: Overall Summary of Safety Pharmacokinetics.

[5] = SAD/MAD first-in-human pharmacokinetics; assay type: in vivo; settings: healthy subjects
Description: Healthy human subjects (N=85) were selected for single ascending dose (SAD) and multiple ascending dose (MAD) first-in-human studies. A solution for oral administration was prepared, containing 10 mg/mL of compound 5 in a 50:50 mixture of ORA-SWEET® SF (PERRIGO®, Allegan, Michigan) and sterile water for irrigation. Sufficient solution was administered orally to the subjects to provide between 15 mg/dose and 75 mg/dose of compound 5 in the SAD study and between 10 mg/dose and 40 mg/dose of compound 5 in the MAD study. Concentrations of compound 5 were measured in the subjects by obtaining a sample of plasma from each subject at desired intervals, and subjecting the plasma to liquid chromatography-mass spectrometry-mass spectrometry (LC-MS/MS), with quantification using a calibration curve determined from a range of solutions at standardized concentrations. The lower limit of quantitation (LLOQ) of the assay was 1 ng/mL and the calibration curve range was 1 to 500 ng/mL.

In the case of `COCCN(CCCCc1ccc2c(n1)NCCC2)CC[C@H](Nc1ncnc2ccccc12)C(=O)O` [Compound 5, (S)-4-((2-methoxyethyl)(4-(5,6,7,8-tetrahydro-1,8-naphthyridin-2-yl)butyl)amino)-2-(quinazolin-4-ylamino)butanoic acid], the “Type I Collagen gene Col1a1 expression, normalized to DMSO control slices” value [1] is reported as “decreased Type I Collagen gene Col1a1 expression substantially”, the “Conc (Unbound Plasma Concentration)” value ([2]; Subject A, single 60 mg dose) is reported as 3.66 nM and the “Conc (Unbound Plasma Concentration)” value ([2]; Subject B, 120 mg dose) is reported as 10 nM. The “Conc (Unbound Plasma Concentration)” value ([2]; Subject B, 240 mg dose two weeks after 120 mg) was 58.3 nM, the “Conc (Unbound Plasma Concentration)” value ([2]; Subject C, 240 mg dose) was 103 nM and the “Conc (Unbound Plasma Concentration)” value ([2]; Subject D, single 320 mg dose) was 33.6 nM. For the same molecule, the “Improvers < −2% QLF extent change, (%)” value ([3]; 40 mg (N = 15)) was 6.6%, the “Median, QLF extent change” value ([3]; 40 mg (N = 15)) was 1.50% and the “Stable [−2, 2%) QLF extent change, (%)” value ([3]; 40 mg (N = 15)) was 46.7%. The “Worse > 2% QLF extent change, (%)” value ([3]; 40 mg (N = 15)) was 46.7%, the “Improvers < −2% QLF extent change, (%)” value ([3]; 80 mg (N = 18)) was 11.1% and the “Mean Difference (SD), QLF extent” value ([3]; 80 mg (N = 18)) was 0.70%. The “Median, QLF extent change” value ([3]; 80 mg (N = 18)) was −0.45%, the “Stable [−2, 2%) QLF extent change, (%)” value ([3]; 80 mg (N = 18)) was 72.2% and the “Worse > 2% QLF extent change, (%)” value ([3]; 80 mg (N = 18)) was 16.7%. The “Improvers < −2% QLF extent change, (%)” value ([3]; 160 mg (N = 14)) was 28.6%, the “Mean Difference (SD), QLF extent” value ([3]; 160 mg (N = 14)) was 0.00% and the “Median, QLF extent change” value ([3]; 160 mg (N = 14)) was −0.10%. The “Stable [−2, 2%) QLF extent change, (%)” value ([3]; 160 mg (N = 14)) was 50.0%, the “Worse > 2% QLF extent change, (%)” value ([3]; 160 mg (N = 14)) was 21.4% and the “lung Col1a1 expression, normalized to DMSO control slices” value (COL1A1 expression; human IPF slices, 3 days, 3G9 ≥400 ng/mL, compound 5 179 nM, ALK5 inhibitor 1 μM, FIG. 4C) was “substantial, statistically significant (p<0.01 vs vehicle) decrease”. For the same molecule, the “COL1A1 expression, concentration dependence” value (COL1A1 expression; single IPF sample, seven days, 200 μM, 2 nM, 60 nM, 200 nM, 1 μM, FIG. 4E) was “dose dependent reduction”, the “dose proportionality of plasma concentrations” value ([4]; IPF participants, 40-160 mg QD, sparse sampling) was “generally dose proportional increases; also recorded: increased approximately proportionally with dose” and the pharmacokinetic profile ([4]; IPF patients, 12-week treatment) was “favorable pharmacokinetic profile”. For the same molecule, the “oral bioavailability and pharmacokinetics” value [5] was “good oral bioavailability and pharmacokinetics”.
